Laboratory results published in patent publication US4343812A, “Antidepressant 2-amino-and-2-(substituted amino)-cis-hexahydro-carbazoles, compositions and use” (E. I. Du Pont de Nemours and Company, priority 1980, dated 1982).
Where a name gives a salt, the structure may show the parent alone. Read-outs that look alike come from different tables or passages of the source.

Experiments:
[1] = prior art; cited from earlier work
dogs = conditions: prior art; cited from earlier work
[2] = prior art; cited from earlier work; remark: listed apart in the source
[3] = system: tetrabenazine-induced sedation and depression in mice; assay: Antagonism of tetrabenazine-induced depression in mice (prevention of ptosis and exploratory loss), orally at 1 hour post-drug; type: in vivo, mice (Carworth CF1 S female); conditions: Mus musculus, oral, tetrabenazine 32 mg/kg intraperitoneally 30 minutes after drug
Protocol: (Everett, "The Dopa Response Potentiation Test and Its Use in Screening for Antidepressant Drugs", pp. 164-167 in "Antidepressant Drugs" [Proceedings of the First International Symposium], S. Garattini and M. N. G. Dukes, eds., 1967). Groups of 10 Carworth CF1 S female mice, 18-21 g each, were fasted 1.5 hours and were intubated with antagonist compounds at oral doses of 0, 5, 25, and 125 mg/kg or 0, 1, 3, 9, 27, and 81 mg/kg in 0.20 ml of 1% Methocel (methylcellulose). The mice were challenged 30 minutes later with tetrabenazine (as the methane-sulfonate), 32 mg/kg intraperitoneally (dissolved in 0.20 ml 0.05 M KCl at pH 2.0). One hour after antagonist (30 minutes after tetrabenazine), the mice were examined for signs of exploratory activity and ptosis (eyelid closure). Normal exploratory activity (relief from sedation) was recorded when a mouse lifted by the tail from a group of 10 in a testing box and placed on a stainless steel testing box lid (12.5"×8" with 0.33" mesh) either turned its head horizontally 30° in both directions or moved to the edge of the screen within 10 seconds after being placed on the screen. Relief from ptosis was recorded when exactly two seconds after placing the mouse facing the observer, lid closure was less than 50% in both eyes. For comparison, the marketed antidepressant amitriptylene was also tested, and an ED50 (effective dose in 50% of the cases) was determined. The lower the ED50, the better the antidepressant.

[4] = read-out: ED50 For Prevention of Exploratory Loss
[5] = read-out: ED50 For Prevention of Ptosis

Structure (SMILES) | analgetic and psychotropic activity [1] | cardiotonic effects (dogs) | antidepressant activity [2] | ED50 [3, 4] [mg/kg] | ED50 [3, 5] [mg/kg]
CN(C)C1CCc2[nH]c3ccccc3c2C1 (stereo not drawn) | analgetic and psychotropic activity | – | – | – | –
CN(C)C1CCc2[nH]c3cc(O)ccc3c2C1 (stereo not drawn) | – | cardiotonic effects | – | – | –
CNCCCC1CN(c2ccccc2)c2ccccc21 (stereo not drawn) | – | – | antidepressant activity | – | –
CCCCCOc1ccc2c(c1)N[C@@H]1CC(NC(C)=O)CC[C@H]21 (stereo partly drawn) [Compound 1L] | – | – | – | 2 | 2
CC(=O)NC1CC[C@@H]2c3ccccc3N[C@@H]2C1 (stereo partly drawn) [Compound 1a, N-(cis-1,3,4,4a,9,9a-hexahydro-2H-carbazol-2-yl)acetamide hydrochloride] | – | – | – | 2.3 | 0.7
CC(=O)NC1CC[C@@H]2c3cc(F)ccc3N[C@@H]2C1 (stereo partly drawn) [Compound 1b] | – | – | – | 4.2 | 2.7
CC(=O)NC1CC[C@@H]2c3cc(Cl)ccc3N[C@@H]2C1 (stereo partly drawn) [Compound 1c] | – | – | – | 14 | 3.3
CC(=O)NC1CC[C@@H]2c3cc(Br)ccc3N[C@@H]2C1 (stereo partly drawn) [Compound 1d] | – | – | – | 3.3 | 2.1
CC(=O)NC1CC[C@@H]2c3cc(C)ccc3N[C@@H]2C1 (stereo partly drawn) [Compound 1e] | – | – | – | 34 | 16
COc1ccc2c(c1)[C@H]1CCC(NC(C)=O)C[C@H]1N2 (stereo partly drawn) [Compound 1f] | – | – | – | 27 | 27
CC(=O)NC1CC[C@@H]2c3ccc(O)cc3N[C@@H]2C1 (stereo partly drawn) [Compound 1g] | – | – | – | 15.6 | 8.1
COc1ccc2c(c1)NC1CC(NC(C)=O)CCC21 (stereo not drawn) [Compound 1h] | – | – | – | 4.2 | 2.2
CCOc1ccc2c(c1)N[C@@H]1CC(NC(C)=O)CC[C@H]21 (stereo partly drawn) [Compound 1i] | – | – | – | 12.7 | 8.9
CCCOc1ccc2c(c1)N[C@@H]1CC(NC(C)=O)CC[C@H]21 (stereo partly drawn) [Compound 1j] | – | – | – | 0.99 | 0.79
CCCCOc1ccc2c(c1)N[C@@H]1CC(NC(C)=O)CC[C@H]21 (stereo partly drawn) [Compound 1k] | – | – | – | 0.35 | 0.22
CCCCCCOc1ccc2c(c1)N[C@@H]1CC(NC(C)=O)CC[C@H]21 (stereo partly drawn) [Compound 1m] | – | – | – | 27 | 27
CC(=O)NC1CCC2c3ccc(OCc4ccccc4)cc3NC2C1 (stereo not drawn) [Compound 1n] | – | – | – | 7.2 | 6.5
CC(=O)NC1CC[C@@H]2c3ccccc3N(C)[C@@H]2C1 (stereo partly drawn) [Compound 1o, N -(cis-1,3,4,4a,9,9a-hexahydro-9-methyl-2H-carbazol-2-yl)acetamide] | – | – | – | 27 | 3.7
O=CNC1CCC2c3ccccc3NC2C1 (stereo not drawn) [Compound 1p] | – | – | – | 21 | 21

Structure (SMILES) | analgetic and psychotropic activity [1] | cardiotonic effects (dogs) | antidepressant activity [2] | ED50 [3, 4] [mg/kg] | ED50 [3, 5] [mg/kg]
CCC(=O)NC1CCC2c3ccccc3NC2C1 (stereo not drawn) [Compound 1q] | – | – | – | 18 | 1.7
CCCCC(=O)NC1CCC2c3ccccc3NC2C1 (stereo not drawn) [Compound 1r] | – | – | – | 7.5 | 6.5
CCOC(=O)NC1CCC2c3ccccc3NC2C1 (stereo not drawn) [Compound 1s] | – | – | – | 4 | 4
COC(=O)NC1CCC2c3ccccc3NC2C1 (stereo not drawn) [Compound 1t] | – | – | – | 9.7 | 5.2
NC1CCC2c3ccccc3NC2C1 (stereo not drawn) [Compound 1u] | – | – | – | 0.75 | 0.57
CNC1CCC2c3ccccc3NC2C1 (stereo not drawn) [Compound 1v] | – | – | – | 3 | 2.4
CCNC1CCC2c3ccccc3NC2C1 (stereo not drawn) [Compound 1w] | – | – | – | 96 | 68
CN(C)C1CCC2c3ccccc3NC2C1 (stereo not drawn) [Compound 1x] | – | – | – | 41 | 37
CCN1c2ccccc2[C@H]2CCC(NC(C)=O)C[C@H]21 (stereo partly drawn) [Compound 1y, N-(cis-9-ethyl-1,3,4,4a,9,9a-hexahydro-2H-carbazol-2-yl) acetamide] | – | – | – | 5.2 | 4.7
CCOc1ccc2c3c([nH]c2c1)CC(NC(C)=O)CC3 (stereo not drawn) [Compound 2L, N-(7-ethoxy-1,3,4,9-tetrahydro-2H-carbazol-2-yl)acetamide] | – | – | – | 2 | 2
CC(=O)NC1CCc2c([nH]c3ccccc23)C1 (stereo not drawn) [Compound 2a, N-(1,3,4,9-tetrahydro-2H-carbazol-2-yl)acetamide] | – | – | – | 2.4 | 1.1
CC(=O)NC1CCc2c([nH]c3ccc(F)cc23)C1 (stereo not drawn) [Compound 2b, N-(6-fluoro-1,3,4,9-tetrahydro-2H-carbazol-2-yl)acetamide] | – | – | – | 2.4 | 0.7
CC(=O)NC1CCc2c([nH]c3ccc(Cl)cc23)C1 (stereo not drawn) [Compound 2c] | – | – | – | 6.5 | 2.4
CC(=O)NC1CCc2c([nH]c3ccc(Br)cc23)C1 (stereo not drawn) [Compound 2d, N-(6-bromo-1,3,4,9-tetrahydro-2H-carbazol-2-yl)acetamide] | – | – | – | 17.4 | 10
CC(=O)NC1CCc2c([nH]c3c(F)cccc23)C1 (stereo not drawn) [Compound 2e] | – | – | – | 19.7 | 14
CC(=O)NC1CCc2c([nH]c3cc(Cl)cc(Cl)c23)C1 (stereo not drawn) [Compound 2f] | – | – | – | 4.7 | 3.3
CC(=O)NC1CCc2c([nH]c3ccc(C)cc23)C1 (stereo not drawn) [Compound 2g] | – | – | – | 7.2 | 3
COc1ccc2[nH]c3c(c2c1)CCC(NC(C)=O)C3 (stereo not drawn) [Compound 2h, N-(1,3,4,9-tetrahydro-6-methoxy-2H-carbazol-2-yl)acetamide] | – | – | – | 6.5 | 5.8
COc1ccc2c3c([nH]c2c1)CC(NC(C)=O)CC3 (stereo not drawn) [Compound 2i, N-(1,3,4,9-tetrahydro-7-methoxy-2H-carbazol-2-yl)acetamide] | – | – | – | 0.9 | 0.8

Structure (SMILES) | analgetic and psychotropic activity [1] | cardiotonic effects (dogs) | antidepressant activity [2] | ED50 [3, 4] [mg/kg] | ED50 [3, 5] [mg/kg]
CCCCOc1ccc2c3c([nH]c2c1)CC(NC(C)=O)CC3 (stereo not drawn) [Compound 2j, N-(7-n-butyloxy-1,3,4,9-tetrahydro-2H-carbazol-2-yl)acetamide] | – | – | – | 0.57 | 0.51
CC(=O)NC1CCc2c([nH]c3cc(O)ccc23)C1 (stereo not drawn) [Compound 2k, N-(1,3,4,9-tetrahydro-7-hydroxy-2H-carbazol-2-yl)acetamide] | – | – | – | > 125 | > 125
CCCOc1ccc2c3c([nH]c2c1)CC(NC(C)=O)CC3 (stereo not drawn) [Compound 2m] | – | – | – | 0.6 | 0.6
CCCCCOc1ccc2c3c([nH]c2c1)CC(NC(C)=O)CC3 (stereo not drawn) [Compound 2n] | – | – | – | 4.3 | 2.7
CCCCCCOc1ccc2c3c([nH]c2c1)CC(NC(C)=O)CC3 (stereo not drawn) [Compound 2o] | – | – | – | 12 | 14
CC(=O)NC1CCc2c([nH]c3cc(OCc4ccccc4)ccc23)C1 (stereo not drawn) [Compound 2p] | – | – | – | 6.5 | 6.5
CC(=O)NC1CCc2c(n(C)c3ccccc23)C1 (stereo not drawn) [Compound 3L, N-(1,3,4,9-tetrahydro-9-methyl-2H-carbazol-2-yl)acetamide] | – | – | – | 11.2 | 9
Cl.NC1CCc2c([nH]c3ccccc23)C1 (stereo not drawn) [Compound 3a, 2,3,4,9-Tetrahydro-1H-carbazol-2-amine hydrochloride] | – | – | – | 8 | 4
O=CNC1CCc2c([nH]c3ccccc23)C1 (stereo not drawn) [Compound 3b, N-(1,3,4,9-tetrahydro-2H-carbazol-2-yl)formamide] | – | – | – | > 125 | 84
CCC(=O)NC1CCc2c([nH]c3ccccc23)C1 (stereo not drawn) [Compound 3c, N-(1,3,4,9-tetrahydro-2H-carbazol-2-yl)propanamide] | – | – | – | > 81 | 67
CCCCC(=O)NC1CCc2c([nH]c3ccccc23)C1 (stereo not drawn) [Compound 3d] | – | – | – | > 81 | > 81
CCOC(=O)NC1CCc2c([nH]c3ccccc23)C1 (stereo not drawn) [Compound 3e, (1,3,4,9-tetrahydro-2H-carbazol-2-yl)carbamic acid, ethyl ester] | – | – | – | > 81 | 40
COC(=O)NC1CCc2c([nH]c3ccccc23)C1 (stereo not drawn) [Compound 3f] | – | – | – | > 81 | > 81
CCOC(=O)N(C)C1CCc2c([nH]c3ccccc23)C1 (stereo not drawn) [Compound 3g, Methyl(1,3,4,9-tetrahydro-2H-carbazol-2-yl)carbamic acid, ethyl ester] | – | – | – | 27 | 7.8
CC(=O)N(C)C1CCc2c([nH]c3ccccc23)C1 (stereo not drawn) [Compound 3h, N-(1,3,4,9-tetrahydro-2H-carbazol-2-yl)-N-methylacetamide] | – | – | – | > 125 | > 125
CCNC1CCc2c([nH]c3ccccc23)C1.Cl (stereo not drawn) [Compound 3i, N-ethyl-2,3,4,9-tetrahydro-1H-carbazol-2-amine hydrochloride] | – | – | – | 27 | 27
CNC1CCc2c([nH]c3ccccc23)C1.Cl (stereo not drawn) [Compound 3j, 2,3,4,9-Tetrahydro-N-methyl-1H-carbazol-2-amine hydrochloride] | – | – | – | 32 | 12
CN(C)C1CCc2c([nH]c3ccccc23)C1 (stereo not drawn) [Compound 3k] | – | – | – | 39 | 11.4
CN(C)CCC=C1c2ccccc2CCc2ccccc21 [amitriptyline, reference compound] | – | – | – | 2.6 | 1.2
